In patent US11976057B2, “MrgX2 antagonists” (GlaxoSmithKline Intellectual Property Development Limited, priority 2020, dated 2024):

Molecular target: T1, human MRGPRX2 (Homo sapiens, UniProt Q96LB1)
T1 sequence (Q96LB1 1-330): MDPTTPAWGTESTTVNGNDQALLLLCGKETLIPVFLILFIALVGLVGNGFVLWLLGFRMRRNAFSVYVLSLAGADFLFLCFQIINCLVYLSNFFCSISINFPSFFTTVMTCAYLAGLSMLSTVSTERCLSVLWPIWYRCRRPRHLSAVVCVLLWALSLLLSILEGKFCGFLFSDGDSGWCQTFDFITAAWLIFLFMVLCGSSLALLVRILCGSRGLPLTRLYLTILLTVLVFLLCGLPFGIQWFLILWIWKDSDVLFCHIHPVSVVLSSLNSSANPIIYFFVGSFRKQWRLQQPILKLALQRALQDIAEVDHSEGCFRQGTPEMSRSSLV
Assay: Ca2+ mobilization assay (FLIPR TETRA): inhibition of Cortistatin-14 mediated MRGPRX2 activation

| SMILES | IC50 [nM] |
| --- | --- |
| C[C@@H](C(=O)Nc1ccc(Oc2ccc(F)cc2CO)cn1)N1CCC(F)(F)[C@@H](c2cc[n+]([O-])cc2)C1 [Example 273, 4-((S)-4,4-difluoro-1-((S)-1-((5-(4-fluoro-2-(hydroxymethyl)phenoxy)pyridin-2-yl)amino)-1-oxopropan-2-yl)piperidin-3-yl)pyridine 1-oxide] | 10 to 100 |
| C[C@@H](C(=O)Nc1ccc(OCC2CC2)nn1)N1CCC(F)(F)[C@@H](c2c[nH]c(=O)c(CN(C)C)c2)C1 [Example 231] | 100 to 3160 |
| C[C@@H](C(=O)Nc1ccc(Oc2ccc(F)cc2F)cn1)N1CCC(F)(F)[C@@H](c2cc[n+]([O-])c(CO)c2)C1 [Example 255] | ≤ 10 |
| C[C@@H](C(=O)Nc1ccc(F)cn1)N1CCC(F)(F)[C@@H](c2cc[n+]([O-])cc2)C1 [Example 113, 4-((S)-4,4-difluoro-1-((S)-1-((5-fluoropyridin-2-yl)amino)-1-oxopropan-2-yl)piperidin-3-yl)pyridine 1-oxide] | 100 to 3160 |
| C[C@@H](C(=O)Nc1ccc(Oc2ncccc2F)cn1)N1CCC(F)(F)[C@@H](c2cc[n+]([O-])cc2)C1 [Example 125, 4-((S)-4,4-difluoro-1-((S)-1-((5-((3-fluoropyridin-2-yl)oxy)pyridin-2-yl)amino)-1-oxopropan-2-yl)piperidin-3-yl)pyridine 1-oxide] | 10 to 100 |
| CC(C(=O)Nc1ccc(Oc2ccccc2)cn1)N1CCC(F)(F)C(c2c[nH]c(=O)c(N)c2)C1 (stereo not shown) [Example 139, 2-(3-(5-amino-6-oxo-1,6-dihydropyridin-3-yl)-4,4-difluoropiperidin-1-yl)-N-(5-phenoxypyridin-2-yl)propanamide] | 10 to 100 |
| C[C@@H](C(=O)Nc1ccc(Oc2ccc(F)cn2)cn1)N1CCC(F)(F)[C@@H](c2cc[n+]([O-])cc2)C1 [Example 115] | 10 to 100 |
| CC(C(=O)Nc1ccc(Oc2ccccc2)cn1)N1CCC(F)(F)C(c2c[nH]c(=O)c(CN)c2)C1 (stereo not shown) [Example 202, 2-(3-(5-(aminomethyl)-6-oxo-1,6-dihydropyridin-3-yl)-4,4-difluoropiperidin-1-yl)-N-(5-phenoxypyridin-2-yl)propanamide] | ≤ 10 |
| C[C@@H](C(=O)Nc1ccc(Oc2ccc(F)cc2F)cn1)N1CCC(F)(F)[C@@H](c2c[nH]c(=O)c(CNC3CC(F)(F)C3)c2)C1 [Example 241, (S)-2-((S)-3-(5-(((3,3-difluorocyclobutyl)amino)methyl)-6-oxo-1,6-dihydropyridin-3-yl)-4,4-difluoropiperidin-1-yl)-N-(5-(2,4-difluorophenoxy)pyridin-2-yl)propanamide] | ≤ 10 |
| C[C@@H](C(=O)Nc1ccc(Oc2ccc(F)cc2)cn1)N1CCC(F)(F)[C@@H](c2cc[n+]([O-])c(CO)c2)C1 [Example 254, 4-((S)-4,4-difluoro-1-((S)-1-((5-(4-fluorophenoxy)pyridin-2-yl)amino)-1-oxopropan-2-yl)piperidin-3-yl)-2-(hydroxymethyl)pyridine 1-oxide] | ≤ 10 |
| C[C@@H](C(=O)Nc1ccc(Oc2ccc(F)cc2F)cn1)N1CCC(F)(F)C(c2c[nH]c(=O)c(C(O)C(F)(F)F)c2)C1 (stereo partly drawn) [Example 212, (2S)-2-(4,4-difluoro-3-(6-oxo-5-(2,2,2-trifluoro-1-hydroxyethyl)-1,6-dihydropyridin-3-yl)piperidin-1-yl)-N-(5-(2,4-difluorophenoxy)pyridin-2-yl)propanamide] | ≤ 10 |
| C[C@@H](C(=O)Nc1ccc(OCC(C)(C)C)nn1)N1CCC(F)(F)[C@@H](c2ccc(=O)[nH]c2)C1 [Example 89, (S)-2-((S)-4,4-difluoro-3-(6-oxo-1,6-dihydropyridin-3-yl)piperidin-1-yl)-N-(6-(neopenlyloxy)pyridazin-3-yl)propanamide] | 100 to 3160 |
| CC(C(=O)Nc1ccc(Oc2ccc(F)cc2)cn1)C1CCC(F)(F)C(c2ccc(=O)[nH]c2)C1 (stereo not shown) [Example 278, 2-(4,4-difluoro-3-(6-oxo-1,6-dihydropyridin-3-yl)cyclohexyl)-N-(5-(4-fluorophenoxy)pyridin-2-yl)propanamide] | ≤ 10 |
| C[C@@H](C(=O)Nc1ccc(Oc2ccc(F)cc2F)cn1)N1CCC[C@@H](c2cc[n+]([O-])cc2)C1 [Example 182, 4-((S)-1-((S)-1-((5-(2,4-difluorophenoxy)pyridin-2-yl)amino)-1-oxopropan-2-yl)piperidin-3-yl)pyridine 1-oxide] | ≤ 10 |

Second part, the molecule after the results:

| IC50 [nM] | SMILES |
| --- | --- |
| 100 to 3160 | C[C@@H](C(=O)Nc1ncc(OCC2CC2)cn1)N1CCC(F)(F)[C@@H](c2ccc(=O)[nH]c2)C1 [Example 35, (S)-N-(5-(cyclopropyl-methoxy)pyrimidin-2-yl)-2-((S)-4,4-difluoro-3-(6-oxo-1,6-dihydropyridin-3-yl)piperidin-1-yl)propanamide] |
| 10 to 100 | CC(C(=O)Nc1ccc(CCC2CC2)cn1)N1CCC(F)(F)[C@@H](c2ccc(=O)[nH]c2)C1 (stereo partly drawn) [Example 21, N-(5-(2-cyclopropylethyl)pyridin-2-yl)-2-((S)-4,4-difluoro-3-(6-oxo-1,6-dihydropyridin-3-yl)piperidin-1-yl)propanamide] |
| 3160 to 31600 | CC(C(=O)Nc1ccc(-c2ccon2)cn1)N1CCC(F)(F)[C@@H](c2ccc(=O)[nH]c2)C1 (stereo partly drawn) [Example 56, 2-((S)-4,4-difluoro-3-(6-oxo-1,6-dihydropyridin-3-yl)piperidin-1-yl)-N-(5-(isoxazol-3-yl)pyridin-2-yl)propanamide] |
| 100 to 3160 | C[C@@H](C(=O)Nc1ccc(C2CC2)cn1)N1CCC(F)(F)[C@@H](c2ccc(=O)[nH]n2)C1 [Example 147] |
| 3160 to 31600 | CC(C(=O)Nc1ccc(-c2ccn(C)n2)cn1)N1CCC(F)(F)[C@@H](c2ccc(=O)[nH]c2)C1 (stereo partly drawn) [Example 55, 2-((S)-4,4-difluoro-3-(6-oxo-1,6-dihydropyridin-3-yl)piperidin-1-yl)-N-(5-(1-methyl-1H-pyrazol-3-yl)pyridin-2-yl)propanamide] |
| 100 to 3160 | CC(C(=O)Nc1ccc(C(=O)OC2CC2)cn1)N1CCC(F)(F)[C@@H](c2ccc(=O)[nH]c2)C1 (stereo partly drawn) [Example 83, cyclopropyl 6-(2-((S)-4,4-difluoro-3-(6-oxo-1,6-dihydropyridin-3-yl)piperidin-1-yl)propanamido) nicotinate] |
| 100 to 3160 | C[C@@H](C(=O)Nc1ccc(Cl)cn1)N1CCC(F)(F)[C@@H](c2ccc(=O)[nH]c2)C1 [Example 81, (S)-N-(5-chloropyridin-2-yl)-2-((S)-4,4-difluoro-3-(6-oxo-1,6-dihydropyridin-3-yl)piperidin-1-yl)propanamide] |
| 10 to 100 | C[C@@H](C(=O)Nc1ccc(/C=C\C2CC2)cn1)N1CCC(F)(F)[C@@H](c2ccc(=O)[nH]c2)C1 [Example 80, (S)-N-(5-((Z)-2-cyclopropylvinyl)pyridin-2-yl)-2-((S)-4,4-difluoro-3-(6-oxo-1,6-dihydropyridin-3-yl)piperidin-1-yl)propanamide] |
| ≤ 10 | C[C@@H](C(=O)Nc1ccc(Oc2ncc(F)cc2F)cn1)N1CCC(F)(F)[C@@H](c2ccc(=O)[nH]c2)C1 [Example 66, (S)-2-((S)-4,4-difluoro-3-(6-oxo-1,6-dihydropyridin-3-yl)piperidin-1-yl)-N-(5-((3,5-difluoropyridin-2-yl)oxy)pyridin-2-yl)propanamide] |
| 100 to 3160 | CC(C(=O)Nc1ccc(OC2CC3(CCC3)C2)nn1)N1CCC(F)(F)[C@@H](c2ccc(=O)[nH]c2)C1 (stereo partly drawn) [Example 93, 2-((S)-4,4-difluoro-3-(6-oxo-1,6-dihydropyridin-3-yl)piperidin-1-yl)-N-(6-(spiro[3.3]heptan-2-yloxy)pyridazin-3-yl)propanamide] |
| 10 to 100 | C[C@@H](C(=O)Nc1ccc(Oc2ccc(Cl)cn2)cn1)N1CCC(F)(F)[C@@H](c2ccc(=O)[nH]c2)C1 [Example 88, (S)-N-(5-((5-chloropyridin-2-yl)oxy)pyridin-2-yl)-2-((S)-4,4-difluoro-3-(6-oxo-1,6-dihydropyridin-3-yl)piperidin-1-yl)propanamide] |
| 10 to 100 | CC(C(=O)Nc1ccc(Oc2cccc(=O)[nH]2)cn1)N1CCC(F)(F)[C@@H](c2ccc(=O)[nH]c2)C1 (stereo partly drawn) [Example 267, 2-((S)-4,4-difluoro-3-(6-oxo-1,6-dihydropyridin-3-yl)piperidin-1-yl)-N-(5-((6-oxo-1,6-dihydropyridin-2-yl)oxy)pyridin-2-yl)propanamide] |
| 100 to 3160 | C[C@@H](C(=O)Nc1ccc(OCC2CCC2)nn1)N1CCC(F)(F)[C@@H](c2ccc(=O)[nH]c2)C1 [Example 71, (S)-N-(6-(cyclobutyl-methoxy)pyridazin-3-yl)-2-((S)-4,4-difluoro-3-(6-oxo-1,6-dihydropyridin-3-yl)piperidin-1-yl)propanamide] |
| 10 to 100 | C[C@@H](C(=O)Nc1ccc(/C=C/C2CC2)cn1)N1CCC(F)(F)[C@@H](c2ccc(=O)[nH]c2)C1 [Example 10] |
| 100 to 3160 | CC(C(=O)Nc1cc2ccn(CC3CC3)c2cn1)N1CCC(F)(F)[C@@H](c2ccc(=O)[nH]c2)C1 (stereo partly drawn) [Example 51, N-(1-(cyclopropyl-methyl)-1H-pyrrolo[2,3-c]pyridin-5-yl)-2-((S)-4,4-difluoro-3-(6-oxo-1,6-dihydropyridin-3-yl)piperidin-1-yl)propanamide] |
| 3160 to 31600 | CC(C(=O)Nc1ccc(Cc2ncco2)cn1)N1CCC(F)(F)[C@@H](c2ccc(=O)[nH]c2)C1 (stereo partly drawn) [Example 53, 2-((S)-4,4-difluoro-3-(6-oxo-1,6-dihydropyridin-3-yl)piperidin-1-yl)-N-(5-(oxazol-2-ylmethy)pyridin-2-yl)propanamide] |
| 100 to 3160 | CC(C(=O)Nc1ccc(Cc2nccs2)cn1)N1CCC(F)(F)[C@@H](c2ccc(=O)[nH]c2)C1 (stereo partly drawn) [Example 52, 2-((S)-4,4-difluoro-3-(6-oxo-1,6-dihydropyridin-3-yl)piperidin-1-yl)-N-(5-(thiazol-2-ylmethyl)pyridin-2-yl)propanamide] |
